Reference: US10947188B2, “Small molecule ferroptosis inducers” (THE TRUSTEES OF COLUMBIA UNIVERSITY IN THE CITY OF NEW YORK, priority 2016, dated 2021)

Columns and labels:
[1] = test system: BJeLR; assay: Modulatory profiling: Alamar Blue viability, lethal compound cotreated with death modulator (EC50, AUC); format: cell-based, human; set-up: AUC, modulator BJ.Gd3+ / AUC, modulator BJ.LNAME / AUC, modulator BJ.Lmin / AUC, modulator BJ.3MA / AUC, modulator BJ.ALLN / AUC, modulator BJ.Boc D / AUC, modulator BJ.CHX / AUC, modulator BJ.Co2+ / AUC, modulator BJ.Nec-1 / AUC, modulator BJ.Pepstatin / AUC, modulator BJ.TLCK / AUC, modulator BJ.atoc / AUC, modulator BJ.trolox / AUC, modulator BJ.zVAD: unit not given beside the values; conditions: BJeLR cells, modulatory profile value (AUC); for AUC, modulator BJ.3MA: lethal compound cotreated with modulator 3MA; for AUC, modulator BJ.ALLN: lethal compound cotreated with modulator ALLN; for AUC, modulator BJ.Boc D: lethal compound cotreated with modulator Boc D; for AUC, modulator BJ.CHX: lethal compound cotreated with modulator CHX; for AUC, modulator BJ.Co2+: lethal compound cotreated with modulator Co2+; for AUC, modulator BJ.DPQ: lethal compound cotreated with modulator DPQ; for AUC, modulator BJ.Gd3+: lethal compound cotreated with modulator Gd3+; for AUC, modulator BJ.LNAME: lethal compound cotreated with modulator LNAME; for AUC, modulator BJ.Lmin/NAD+: lethal compound cotreated with modulator Lmin/NAD+; for AUC, modulator BJ.Lmin: lethal compound cotreated with modulator Lmin; for AUC, modulator BJ.NAD+: lethal compound cotreated with modulator NAD+; for AUC, modulator BJ.NMMA: lethal compound cotreated with modulator NMMA; for AUC, modulator BJ.Nec-1: lethal compound cotreated with modulator Nec-1; for AUC, modulator BJ.Pepstatin: lethal compound cotreated with modulator Pepstatin; for AUC, modulator BJ.TLCK: lethal compound cotreated with modulator TLCK
[2] = test system: HT-1080; assay: as above; format: cell-based; set-up: AUC, modulator HT.3MA / AUC, modulator HT.ALLN / AUC HT.ATA / AUC HT.ActD / AUC HT.BHA / AUC HT.BHT / AUC HT.BocD / AUC HT.CHX / AUC HT.Co2+ / AUC HT.DPQ / AUC HT.EGTA / AUC HT.Lmim / AUC HT.NAD+ / AUC HT.Nec-1 / AUC HT.SP600125 / AUC HT.TLCK / AUC HT.U0126: unit not given beside the values; conditions: for AUC HT.ATA: HT-1080, modulator ATA; for AUC HT.ActD: HT-1080, modulator ActD; for AUC HT.BHA: HT-1080, modulator BHA; for AUC HT.BHT: HT-1080, modulator BHT; for AUC HT.BocD: HT-1080, modulator BocD; for AUC HT.CHX: HT-1080, modulator CHX; for AUC HT.Co2+: HT-1080, modulator Co2+; for AUC HT.CspA: HT-1080, modulator CspA; for AUC HT.DPQ: HT-1080, modulator DPQ; for AUC HT.EGTA: HT-1080, modulator EGTA; for AUC HT.Gd3+: HT-1080, modulator Gd3+; for AUC HT.LNAME: HT-1080, modulator LNAME; for AUC HT.Lmim: HT-1080, modulator Lmim; for AUC HT.NAD+: HT-1080, modulator NAD+; for AUC HT.NMMA: HT-1080, modulator NMMA; for HT.atoc (AUC) / HT.bCarotene (AUC) / HT.deferox (AUC) / HT.digoxin (AUC) / HT.trolox (AUC) / HT.zVAD (AUC): HT-1080; for HT.atoc (AUC): modulator atoc; for HT.bCarotene (AUC): modulator bCarotene; for HT.deferox (AUC): modulator deferox; for HT.digoxin (AUC): modulator digoxin; for HT.trolox (AUC): modulator trolox; for HT.zVAD (AUC): modulator zVAD

Compound	AUC, modulator BJ.3MA [1]	AUC, modulator BJ.ALLN [1]	AUC, modulator BJ.Boc D [1]	AUC, modulator BJ.CHX [1]	AUC, modulator BJ.Co2+ [1]	AUC, modulator BJ.DPQ [1]	AUC, modulator BJ.Gd3+ [1]	AUC, modulator BJ.LNAME [1]	AUC, modulator BJ.Lmin/NAD+ [1]	AUC, modulator BJ.Lmin [1]	AUC, modulator BJ.NAD+ [1]	AUC, modulator BJ.NMMA [1]	AUC, modulator BJ.Nec-1 [1]	AUC, modulator BJ.Pepstatin [1]	AUC, modulator BJ.TLCK [1]	AUC HT.ATA [2]	AUC HT.ActD [2]	AUC HT.BHA [2]	AUC HT.BHT [2]	AUC HT.BocD [2]	further results
CN(C)CCNC(=O)c1cc2c(s1)-c1ccc(Cl)cc1SC2 [CIL55]	0.06354	−0.04685	−0.01499	0.0373	0.03522	0.01735	0.003555	−0.02008	0.1924	0.08143	0.02772	−0.002759	0.09849	0.02873	0.07378	0.05195	−0.0079	0.09593	0.04919	0.01568	AUC HT.CHX [2]: −0.01039; AUC HT.Co2+ [2]: 0.1152; AUC HT.CspA [2]: −0.007883; AUC HT.DPQ [2]: 0.01405; AUC HT.EGTA [2]: 0.04877; AUC HT.Gd3+ [2]: −0.01479; AUC HT.LNAME [2]: 0.007171; AUC HT.Lmim [2]: 0.07005; AUC HT.NAD+ [2]: 0.03996; AUC HT.NMMA [2]: 0.004761; HT.atoc (AUC) [2]: 0.2074; HT.bCarotene (AUC) [2]: 0.001297; HT.deferox (AUC) [2]: 0.1108; HT.digoxin (AUC) [2]: −0.0491; HT.trolox (AUC) [2]: 0.1469; HT.zVAD (AUC) [2]: 0.0266
O=C(Oc1ccc(Cl)c2cccnc12)c1ccco1 [CIL58]	0.03403	0.01846	−0.007995	−0.04911	0.2386	0.009922	0.02131	−0.02811	0.02713	−0.009172	0.02238	−0.05299	0.0983	0.07532	0.1505	0.05141	0.02044	−0.03989	−0.1355	−0.02082	AUC HT.CHX [2]: −0.05674; AUC HT.Co2+ [2]: 0.09509; AUC HT.CspA [2]: 0.06761; AUC HT.DPQ [2]: −0.005922; AUC HT.EGTA [2]: 0.05184; AUC HT.Gd3+ [2]: −0.004674; AUC HT.LNAME [2]: −0.09982; AUC HT.Lmim [2]: −0.07257; AUC HT.NAD+ [2]: −0.06539; AUC HT.NMMA [2]: −0.09083; HT.atoc (AUC) [2]: 0.03305; HT.bCarotene (AUC) [2]: 0.08558; HT.deferox (AUC) [2]: 0.08912; HT.digoxin (AUC) [2]: 0.0229; HT.trolox (AUC) [2]: −0.04791; HT.zVAD (AUC) [2]: 0.02459
Cc1cccc(Cn2ncc(Cl)c(Cl)c2=O)c1 [CIL60]	0.06736	−0.004197	0.02626	0.1803	0.03836	0.02057	0.02704	−0.01542	0.05888	0.04196	0.05735	−0.03338	0.08176	0.1359	−0.06705	0.07052	0.04832	−0.0006407	−0.1303	−0.04051	AUC HT.CHX [2]: 0.112; AUC HT.Co2+ [2]: −0.08003; AUC HT.CspA [2]: −0.004831; AUC HT.DPQ [2]: 0.02073; AUC HT.EGTA [2]: 0.05296; AUC HT.Gd3+ [2]: −0.0163; AUC HT.LNAME [2]: 0.004397; AUC HT.Lmim [2]: 0.03464; AUC HT.NAD+ [2]: 0.01526; AUC HT.NMMA [2]: −0.01091; HT.atoc (AUC) [2]: 0.08708; HT.bCarotene (AUC) [2]: 0.04979; HT.deferox (AUC) [2]: 0.07702; HT.digoxin (AUC) [2]: −0.03602; HT.trolox (AUC) [2]: −0.0265; HT.zVAD (AUC) [2]: −0.009922
CC1(C)CC(=O)C2=C(C1)OC1=C(C(=O)CC(C)(C)C1)C2c1ccc(O)cc1O [CIL62]	0.009762	−0.06265	−0.008658	0.5162	0.01574	−0.005752	0.002946	−0.02055	0.08736	0.01862	0.04149	−0.05556	0.1929	0.06831	−0.03175	0.02941	−0.01143	−0.007393	−0.1437	0.002455	effect of necrostatin-1 on lethality ([2]; 19 μM Nec-1): suppressed by necrostatin-1; AUC HT.CHX [2]: 0.08707; AUC HT.Co2+ [2]: 0.03422; AUC HT.CspA [2]: −0.001347; AUC HT.DPQ [2]: 0.01017; AUC HT.EGTA [2]: 0.04611; AUC HT.Gd3+ [2]: −0.02573; AUC HT.LNAME [2]: −0.003569; AUC HT.Lmim [2]: 0.008056; AUC HT.NAD+ [2]: −0.01689; AUC HT.NMMA [2]: −0.01754; HT.atoc (AUC) [2]: 0.08235; HT.bCarotene (AUC) [2]: 0.02726; HT.deferox (AUC) [2]: 0.1061; HT.digoxin (AUC) [2]: −0.02448; HT.trolox (AUC) [2]: −0.03123; HT.zVAD (AUC) [2]: −0.01794
